For assay [1], the target named is T1, BtGH97H (Bacteroides thetaiotaomicron, UniProt Q89YZ9).
T1 construct: gene BT_4581; N-terminal 6x His tag, recombinant
In words: competitive inhibition kinetics with pNP-Glc. It counts as biochemical.

Assay [2] concerns the target T2, BoSusA (BoGH13BSus) (Bacteroides ovatus, UniProt A0ABU3INP3, D331N).
T2 construct: gene RO706_06385; cloned starting with A90 (A23 in SusA numbering)
The experiment in a line: isothermal titration calorimetry. It counts as binding. In general terms: Isothermal titration calorimetry measures the heat released or taken up as one component is titrated into another.

For assay [3], the target named is T3, SusA (Bacteroides thetaiotaomicron, UniProt Q8A1G0, D331N).
T3 construct: cloned starting with T23
In words: isothermal titration calorimetry. It counts as binding.

In assay [4] the target is T4, BoSusB (BoGH97CSus) (Bacteroides ovatus, UniProt A0AAN3A6N4).
T4 construct: gene BACOVA_03519; N-terminal 6x His tag, recombinant
The experiment in a line: co-crystal structure; competitive inhibition kinetics with pNP-Glc. Format: biochemical.

Assay [5] deals with T5, BoSusA (BoGH13BSus) (Bacteroides ovatus, UniProt A0ABU3INP3).
T5 construct: gene RO706_06385; cloned starting with A90 (A23 in SusA numbering)
The experiment in a line: inhibition kinetics with pNP-G6 (αKi); also ITC binding to free enzyme. Format: biochemical. The settings on record: read-out: Inhibition constant.

For assay [6], the target named is T6, SusA (Bacteroides thetaiotaomicron, UniProt Q8A1G0).
T6 construct: cloned starting with T23
The description is as above. Format: biochemical.

Assay [7] deals with T7, BoGH97D (Bacteroides ovatus, UniProt A0ABU3IP51).
T7 construct: gene RO706_07160; N-terminal 6x His tag, recombinant
In words: competitive inhibition kinetics with pNP-Glc. Format: biochemical.

The target of assay [8] is T8, BoSusG (BoGH13ASus) (Bacteroides ovatus, UniProt A0ABU3ISA0).
T8 construct: gene RO706_06355
In words: EnzChek fluorescent starch amylase assay. It counts as biochemical.

Drawing on publication PMC11633381 (mBio, 2024), this text covers Ki, isothermal titration calorimetry and IC50 for 1 compound.

Molecules are shown by their SMILES.

A word on the IC50: it is the concentration needed to halve the response being measured.

On to `C[C@H]1O[C@H](O[C@H]2[C@H](O)[C@@H](O)[C@@H](O[C@H]3[C@H](O)[C@@H](O)C(O)O[C@@H]3CO)O[C@@H]2CO)[C@H](O)[C@@H](O)[C@@H]1N[C@H]1C=C(CO)[C@@H](O)[C@H](O)[C@H]1O` (some centres unmarked) [acarbose], for which the Ki in assay [1] was 162 ± 24.3 nM; in assay [4], 69.3 ± 8.9 nM; in assay [5], 123 ± 9.2 nM; in assay [6] it was 94.7 ± 6.9 nM; in assay [7] it was 134 ± 22.4 nM. The isothermal titration calorimetry result is “Wild-type enzyme has two acarbose-binding sites, whereas a catalytically inert variant of each enzyme (D331N) has one” in assay [2] and “Wild-type enzyme has two acarbose-binding sites, whereas a catalytically inert variant of each enzyme (D331N) has one” in assay [3]. The same compound displayed an IC50 in assay [8] of 2200 ± 350 nM.
